Results reported in US9000208B2, “Glutamate derivatives or salts thereof” (Ajinomoto Co., Inc., priority 2010, dated 2015).
Where a name gives a salt, the structure may show the parent alone. Numbered stars: 1 amine (or outer) side, 2 acyl side, 3 side chain; on linkers, the order of the positions; unused ones are H or OH. Square brackets hold non-standard residues; d marks the D form. Ends that are not written are not given here. γGlu = O=C(O)[C@H](CCC(=O)[*:2])N[*:1]

Assays:
[1] = Evaluation of kokumi taste, quantitative sensory evaluation test; set-up: species or system human; details: for Kokumi Intensity Aftertaste / Kokumi Intensity First-middle taste: score control 0, strong 3, very strong 5, n=4
Description: On the compounds in which the calcium receptor activating action was found (sodium salts of Compound Nos. 1, 7 and 21), the intensity of kokumi-imparting activity was examined by a quantitative sensory evaluation test. In 5 ml of distilled water was dissolved 525 mg of Compound No. 1 described in REFERENCE EXAMPLE I and of REFERENCE […] EXAMPLE I. By adding 16.4 ml of 0.1M sodium hydroxide solution to the resulting solution, the solution was adjusted to pH 6.5 to 7 followed by freeze-drying. The resulting Na salt was provided for use. In addition, 500 mg of Compound No. 7 described in REFERENCE EXAMPLE I and REFERENCE […] EXAMPLE 7 was suspended in 5 ml of distilled water. To the suspension were sequentially added 1.61 ml of 1M sodium hydroxide and 0.8 ml of 2M hydrochloric acid at 0° C. The solid precipitated was taken out by filtration and dried under reduced pressure at 40° C. to give 426 mg of Reference Compound No. 7. After the solid substance obtained was suspended in 10 ml of distilled water, 1.2 ml of 1M sodium hydroxide was added to the suspension and freeze-dried. The resulting Na salt was provided for use. Reference Compound No. 21 was used in the form of the Na salt, which was prepared from Compound No. 21 described in REFERENCE EXAMPLE I and REFERENCE […] EXAMPLE 21 by the same procedures as described above.
A quantitative sensory evaluation test was conducted as follows. The intensity of kokumi-imparting activity was examined when 0.000001 to 0.1 g/dl of the compound as a sample (No. 1—Na salt) was mixed with distilled water containing sodium glutamate (0.05 g/dl), inosine monophosphate (0.05 g/dl) and sodium chloride (0.5 g/dl). As a reference, γGlu-Cys-Gly and γGlu-Val-Gly were used, each of which is a known kokumi-imparting component. The sample that became acidic to an additive-free control after dissolving the sample was used by adjusting its pH within ±0.2 with NaOH based on the additive-free control. Sensory scoring was defined as a control: 0, strong: 3 and very strong: 5, and performed in n=4. Meanwhile, a “first-middle taste” is intended to mean the taste combining the first taste and middle taste.

rat large intestine loop = assay: Effect of CaSR agonist on water absorption in rat large intestine loop method (PGE2-treated); type: in vivo; details: male SD (IGS) rat, PGE2 i.p., compound in Tyrode solution in the loop, 1 hour
Description: Under pentobarbital anesthesia the cecum and large intestine were isolated from the abdomen of a male SD (IGS) rat, and a large intestine loop was prepared by ligating a point 5 cm just below the cecum. Immediately after preparing the loop, PGE2 (4 μg/ml/kg, SIGMA) was intraperitoneally administered. Thirty minutes later, 2 ml of Tyrode solution (136.9 mM NaCl, 2.7 mM KCl, 1.8 mM CaCl2.2H2O, 1.04 mM MgCl2.6H2O, 0.04 mM NaH2PO4.2H2O, 5.55 mM glucose and 11.9 mM NaHCO3) was poured into the loop prepared. An hour later, the weight of the loop, the weight when the liquid was removed from the loop and the loop area were measured to calculate the weight per unit area of the liquid that remains in the loop.
A test compound was dissolved in Tyrode solution (adjusted to pH 6.5 to 7.5), which was provided for tests.
The remaining liquid weight per unit area (g/cm^2) was calculated by the following equation. Remaining liquid weight per unit area (g/cm^2)=(loop weight−loop weight when the liquid was removed from the loop)/loop area
Water absorption was evaluated by calculating the inhibition ratio by the following equation. Inhibition ratio(%)=100−(remaining liquid weight per unit area with a drug−basic average remaining liquid weight per unit area)/(average remaining liquid weight per unit area of vehicle−basic average remaining liquid weight per unit area)×100 […]

## [γGlu]-Cys-Gly
[1]; 0.01 g/dl
  Comments on Sensory Evaluation: Richness, thickness and continuity
  Kokumi Intensity Aftertaste: 3.0
  Kokumi Intensity First-middle taste: 3.0

## N[C@@H](CCC(=O)Nc1cc(Cl)cc(S(=O)(=O)O)c1O)C(=O)O [Reference Compound No. 7, N^5-(5-chloro-2-hydroxy-3-sulfophenyl)-L-glutamine]
Rat large intestine loop
  Water absorption: promoted in a dose-dependent manner

## Cc1c(Cl)cc(NC(=O)CC[C@H](N)C(=O)O)cc1S(=O)(=O)O [No. 21-Na salt, N^5-(3-chloro-4-methyl-5-sulfophenyl)-L-glutamine]
[1]; 0.0002 g/dl
  Kokumi Intensity Aftertaste: 2.0
  Kokumi Intensity First-middle taste: 1.5
[1]; 0.0005 g/dl
  Kokumi Intensity Aftertaste: 3.1
  Kokumi Intensity First-middle taste: 2.6
[1]; 0.001 g/dl
  Kokumi Intensity Aftertaste: 3.7
  Kokumi Intensity First-middle taste: 3.1

## N[C@@H](CCC(=O)Nc1cccc(S(=O)(=O)O)c1)C(=O)O [No. 1-Na salt, N^5-(3-sulfophenyl)-L-glutamine]
[1]; 0.000001 to 0.1 g/dl in water with sodium glutamate 0.05, inosine monophosphate 0.05, sodium chloride 0.5 g/dl
  kokumi-imparting activity: widely found in the above concentrations
[1]; 0.00001 g/dl
  Kokumi Intensity Aftertaste: 1.0
  Kokumi Intensity First-middle taste: 0.7
[1]; 0.0001 g/dl
  Comments on Sensory Evaluation: There was harmony accompanied
  Kokumi Intensity Aftertaste: 2.0
  Kokumi Intensity First-middle taste: 1.8
[1]; 0.0005 g/dl
  Kokumi Intensity Aftertaste: 3.0
  Kokumi Intensity First-middle taste: 2.6
[1]; 0.001 g/dl
  Kokumi Intensity Aftertaste: 3.6
  Kokumi Intensity First-middle taste: 3.2
[1]; 0.01 g/dl
  Comments on Sensory Evaluation: All tastes were strong.
  Kokumi Intensity Aftertaste: 5.0
  Kokumi Intensity First-middle taste: 5.0

## N[C@@H](CCC(=O)Nc1cccc(S(=O)(=O)O)c1)C(=O)O [Reference Compound No. 1, N^5-(3-sulfophenyl)-L-glutamine]
Rat large intestine loop
  Water absorption: promoted dose-dependently

## [γGlu]-Val-Gly
[1]; 0.001 g/dl
  Comments on Sensory Evaluation: Smoothness, richness and growth
  Kokumi Intensity Aftertaste: 3.0
  Kokumi Intensity First-middle taste: 2.5
[1]; 0.005 g/dl
  Comments on Sensory Evaluation: Smoothness, richness and growth
  Kokumi Intensity Aftertaste: 4.0
  Kokumi Intensity First-middle taste: 3.5

## N[C@@H](CCC(=O)Nc1cc(Cl)cc(S(=O)(=O)O)c1O)C(=O)O [No. 7-Na salt, N^5-(5-chloro-2-hydroxy-3-sulfophenyl)-L-glutamine]
[1]; 0.00005 g/dl
  Comments on Sensory Evaluation: Thickness mainly in the middle taste.
  Kokumi Intensity Aftertaste: 2.5
  Kokumi Intensity First-middle taste: 2.2
[1]; 0.0001 g/dl
  Kokumi Intensity Aftertaste: 3.2
  Kokumi Intensity First-middle taste: 2.5
[1]; 0.0005 g/dl
  Comments on Sensory Evaluation: Rich thickness in the middle taste
  Kokumi Intensity Aftertaste: 4.0
  Kokumi Intensity First-middle taste: 3.3
